Values quoted from earlier work in patent US20260014105A1, “POWDER MIXTURE COMPRISING REPARIXIN” (Dompe' Farmaceutici SPA, priority 2022, published 2026).

Test system: hospitalized patients with severe COVID-19 pneumonia

CC(C)Cc1ccc([C@@H](C)C(=O)NS(C)(=O)=O)cc1 [reparixin, R-(−)-2-(4-isobutylphenyl)propionyl methansulfonamide]
Clinical outcomes compared with the standard of care: improved clinical outcomes
